These results are taken from paper PMC5461540, “MOB1 Mediated Phospho-recognition in the Core Mammalian Hippo Pathway” (Molecular & Cellular Proteomics : MCP, 2017).

The target of assay [1] is T1, MOB1A (Homo sapiens, UniProt Q9H8S9).
T1 construct: MOB1A (2–216, NP_060691); 6xHis (N, cleaved yes); GST (N, cleaved yes); made in house; host or cells: E. coli BL21 (DE3) CodonPlus RIL
T1 sequence (Q9H8S9 2-216): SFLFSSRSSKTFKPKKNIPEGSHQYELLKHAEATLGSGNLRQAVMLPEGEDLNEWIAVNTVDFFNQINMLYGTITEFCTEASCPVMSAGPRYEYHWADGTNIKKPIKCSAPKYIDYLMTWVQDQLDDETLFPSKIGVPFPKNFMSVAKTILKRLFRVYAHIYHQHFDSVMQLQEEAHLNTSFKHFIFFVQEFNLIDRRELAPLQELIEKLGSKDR
As to the kind of experiment: Fluorescence polarization peptide binding assay, MOB1A wild-type. The note with it: FP. An excerpt: (§1) Human MST1 kinase domain (amino acids 2–326, corresponding to NCBI RefSeq protein NP_006273), MST2 kinase domain (2–322, NP_006272), MOB1B (2–216, NP_001231695), MOB1A (2–216, NP_060691) wild-type and indicated MOB1A mutant proteins, MOB2 (2–237, NP_001165694), MOB3A (2–217, NP_570719), MOB3B (2–216, NP_079037), MOB3C (2–216, NP_660322), MOB4 (2–225, NP_056202), MOB4^RRR→AAA (2–225), and yeast Mob1 (79–314, NP_012160) were expressed in E. coli BL21 (DE3) CodonPlus RIL cells as N-terminal dual 6xhistidine (HIS) and glutathione S-transferase (GST), Tobacco Etch Virus (TEV) cleavable, fusion proteins using a modified pETM-30 vector. MOB wild-type and mutants were purified in batch on glutathione-Sepharose resin (GE Healthcare, Uppsala, Sweden) and eluted by cleavage from the affinity tags with HIS tagged TEV protease. TEV protease was removed from the eluted protein by subtractive immobilized-metal affinity chromatography. Cleaved protein was then concentrated and buffer exchanged by size exclusion chromatography (SEC) using a Superdex 75 120 ml column (GE Healthcare). For GST pull-downs and Far-Western analysis, the TEV cleavage step was omitted.
MST1 phosphopeptides encompassing pT353 and pT367 (15-mers) used for crystallization and FITC labeled nonphosphorylated and phosphorylated MST1 T353 peptides, T367 peptides, T329-T340 peptides, T380-T387 peptides and optimized Nud1-like peptides for fluorescence polarization binding experiments were purchased from Biomatik (Cambridge, ON). Peptide sequences used for crystallization studies are: T353, […](p)TMIEH and T367, […](p)TMVINA. All peptides used for biophysical studies are listed in supplemental Table S1.
Twelve-point fluorescence polarization binding measurements were performed in triplicate in 384-well plate format using an Analyst HT (Artisan-Scientific, Sunnyvale, CA) reader. Each 20 μl measurement condition contained 20 nM FITC labeled MST1 peptide or Nud1-like peptide and the indicated concentration of MOB proteins in 25 mM HEPES pH 7.5, 150 mM NaCl, 2 mM DTT, and 1 mg/ml bovine serum albumin (BSA). Kd values were obtained by fitting the results to a one site-specific binding model using GraphPad Prism.
Background: Polarisation of emitted light reports the rotation of a fluorescent probe.

Assay [2] has as its target T2, MOB1A KRR→3A mutant (Homo sapiens, UniProt Q9H8S9, K153A/R154A/R157A).
T2 construct: MOB1A (2–216, NP_060691) wild-type and indicated MOB1A mutant proteins; 6xHis (N, cleaved yes); GST (N, cleaved yes); made in house; host or cells: E. coli BL21 (DE3) CodonPlus RIL
T2 sequence (Q9H8S9 2-216 K153A/R154A/R157A): T1 sequence (Q9H8S9 2-216) with K152A, R153A, R156A
As to the kind of experiment: Fluorescence polarization peptide binding assay, MOB1A KRR→3A mutant (K153, R154, R157 to alanine). The note with it: Fig. 2B, MOB1A KRR→3A (K153, R154, R157 to alanine); FP, 20 nM FITC labeled peptide, pH 7.5; n = 3; N.D. = Kd could not be determined.
Source text: as §1, with “TEV protease was removed from the eluted protein by subtractive immobilized-metal affinity chromatography. Cleaved protein was then concentrated and buffer exchanged by size exclusion chromatography (SEC) using a Superdex 75 120 ml column (GE Healthcare). For GST pull-downs and Far-Western analysis, the TEV cleavage step was omitted.” left out
MST1 phosphopeptides encompassing pT353 and pT367 (15-mers) used for crystallization and FITC labeled nonphosphorylated and phosphorylated MST1 T353 peptides, T367 peptides, T329-T340 peptides, T380-T387 peptides and optimized Nud1-like peptides for fluorescence polarization binding experiments were purchased from Biomatik (Cambridge, ON). […]
Twelve-point fluorescence polarization binding measurements were performed in triplicate in 384-well plate format using an Analyst HT (Artisan-Scientific, Sunnyvale, CA) reader. […]

For assay [3], the system named is GST-MOB1B. The experiment in a line: Peptide array Far-Western overlay with GST-MOB1B. Particulars: cellulose-bound 15-mer peptide SPOT array probed with 1 μg GST-MOB1B at 20 °C overnight, anti-GST HRP detection. Format: binding, human. How it is done:
Cellulose-bound peptide arrays were prepared employing Fmoc solid phase peptide synthesis using a MultiPep-RSi-Spotter (INTAVIS, Köln, Germany) according to the SPOT synthesis method provided by the manufacturer, and previously described ([29]). Peptides were synthesized on amino-functionalized cellulose membranes (Whatman™ Chromatography paper Grade 1CHR, GE Healthcare Life Sciences #3001–878) and the presence of SPOTed peptides was confirmed by ultraviolet light (UV, λ = […]). Peptide sequences were chosen for each of the phosphorylated sites within the sequence encompassing residues 327 to 487 of MST1 as reported in PhosphositePlus (31/01/2014, ref 30). In addition, 15 amino acid-long peptides spanning the entire MST1 linker region (aa 327–487) were also synthesized in both phospho- and nonphosphorylated versions (for every serine, threonine, or tyrosine position; supplemental Fig. S1). Subsequent arrays were generated by alanine scanning from the pT353 and pT367 peptide sequences. The peptide arrays were soaked in 100% ethanol and blocked in 5% milk in H2O for 6 h at 20 °C. One microgram of GST-MOB1B (or GST alone) was used to probe the arrays at 20 °C overnight. Following washes with PBS plus 0.1% Tween-20, the arrays were blocked again in 5% milk for 1 h. […]

The target of assay [4] is yeast Mob1. Particulars: yeast Mob1 binding to Nud1 short linear phosphopeptide motif; cited from earlier work. An excerpt:
Key to its function as a Hippo pathway activator is the ability of MOB1 to bind directly to MST1 and MST2 kinases. Recent structural studies provided key insight into the underlying mechanism of binding.

[5] abbreviates: Fig. 3D summary of MST1 phosphopeptide affinities for MOB1A, read-out: Kd.
Setting [6] is: 20 nM FITC labeled peptide, recombinant wild-type MOB1A, pH 7.5.

Residue numbers refer to the chain shown, from its start. Read-outs that look alike come from different tables or passages of the source. Where a SMILES comes first, the peptide text is derived from it.

The term Kd denotes the constant that tells how readily two partners part at equilibrium.

On to `CSCC[C@H](NC(=O)[C@H](CCC(=O)O)NC(=O)[C@H](CC(=O)O)NC(=O)CNC(=O)[C@@H](NC(=O)[C@H](C)NC(=O)[C@H](CCCNC(=N)N)NC(=O)[C@@H](NC(=O)[C@H](CCSC)NC(=O)[C@@H](NC(=O)CN)[C@@H](C)O)C(C)C)C(C)C)C(=O)NCC(=O)N[C@H](C(=O)N[C@H](C(=O)N[C@@H](CCCNC(=N)N)C(=O)O)C(C)C)[C@@H](C)OP(=O)(O)O` [MST1 T329/pT340 peptide] (HELM PEPTIDE1{G.T.M.V.R.A.V.G.D.E.M.G.[C[C@@H](OP(=O)(O)O)[C@H](N[*:1])C(=O)[*:2]].V.R}$$$$V2.0), for which, in assay [1] (setting [5]), the Kd came out at 66.1 µM. Turning to `CSCC[C@H](NC(=O)[C@H](CCC(=O)O)NC(=O)[C@H](CC(=O)O)NC(=O)CNC(=O)[C@@H](NC(=O)[C@H](C)NC(=O)[C@H](CCCNC(=N)N)NC(=O)[C@@H](NC(=O)[C@H](CCSC)NC(=O)[C@@H](NC(=O)CN)[C@@H](C)OP(=O)(O)O)C(C)C)C(C)C)C(=O)NCC(=O)N[C@H](C(=O)N[C@H](C(=O)N[C@@H](CCCNC(=N)N)C(=O)O)C(C)C)[C@@H](C)O` [MST1 pT329/T340 peptide] (HELM PEPTIDE1{G.[C[C@@H](OP(=O)(O)O)[C@H](N[*:1])C(=O)[*:2]].M.V.R.A.V.G.D.E.M.G.T.V.R}$$$$V2.0), the Kd in assay [1] (setting [5]) was 46.5 µM.

Consider `CSCC[C@H](NC(=O)[C@H](CCC(=O)O)NC(=O)[C@H](CC(=O)O)NC(=O)CNC(=O)[C@@H](NC(=O)[C@H](C)NC(=O)[C@H](CCCNC(=N)N)NC(=O)[C@@H](NC(=O)[C@H](CCSC)NC(=O)[C@@H](NC(=O)CN)[C@@H](C)OP(=O)(O)O)C(C)C)C(C)C)C(=O)NCC(=O)N[C@H](C(=O)N[C@H](C(=O)N[C@@H](CCCNC(=N)N)C(=O)O)C(C)C)[C@@H](C)OP(=O)(O)O` [MST1 pT329/pT340 peptide] (HELM PEPTIDE1{G.[C[C@@H](OP(=O)(O)O)[C@H](N[*:1])C(=O)[*:2]].M.V.R.A.V.G.D.E.M.G.[C[C@@H](OP(=O)(O)O)[C@H](N[*:1])C(=O)[*:2]].V.R}$$$$V2.0), for which the Kd in assay [1] (Supplemental Fig. 4A, 4B, MOB1A, differentially phosphorylated MST1 15-mer peptides, mean ± SEM (n=3), read-out: kd) worked out at 49 ± 6 µM. Regarding `CC[C@H](C)[C@H](NC(=O)[C@H](CCSC)NC(=O)[C@@H](NC(=O)[C@H](CC(N)=O)NC(=O)[C@H](C)NC(=O)CNC(=O)[C@H](CC(=O)O)NC(=O)[C@@H](NC(=O)[C@H](CCSC)NC(=O)[C@@H](NC(=O)[C@H](CO)NC(=O)[C@H](C)NC(=O)[C@@H](N)C(C)C)[C@@H](C)O)[C@@H](C)O)[C@@H](C)O)C(=O)N[C@@H](CCC(=O)O)C(=O)N[C@@H](Cc1c[nH]cn1)C(=O)O` [T353] (H-VASTMTDGANTMIEH-OH), the Kd entry in assay [1] (setting [6]) was “no detectable binding”. As to `CC[C@H](C)[C@H](NC(=O)[C@@H](NC(=O)[C@H](CCSC)NC(=O)[C@@H](NC(=O)CNC(=O)[C@H](CC(C)C)NC(=O)[C@H](CCC(N)=O)NC(=O)[C@H](CO)NC(=O)[C@@H]1CCCN1C(=O)[C@H](CC(C)C)NC(=O)[C@@H](NC(=O)[C@H](CC(=O)O)NC(=O)[C@@H](N)CC(=O)O)[C@@H](C)O)[C@@H](C)O)C(C)C)C(=O)N[C@@H](CC(N)=O)C(=O)N[C@@H](C)C(=O)O` [T367] (H-DDTLPSQLGTMVINA-OH), the Kd entry in assay [1] (setting [6]) is on record as “no detectable binding”. Turning to `CC[C@H](C)[C@H](NC(=O)[C@H](CCSC)NC(=O)[C@@H](NC(=O)[C@H](CC(N)=O)NC(=O)[C@H](C)NC(=O)CNC(=O)[C@H](CC(=O)O)NC(=O)[C@@H](NC(=O)[C@H](CCSC)NC(=O)[C@@H](NC(=O)[C@H](CO)NC(=O)[C@H](C)NC(=O)[C@@H](N)C(C)C)[C@@H](C)O)[C@@H](C)O)[C@@H](C)OP(=O)(O)O)C(=O)N[C@@H](CCC(=O)O)C(=O)N[C@@H](Cc1c[nH]cn1)C(=O)O` [pT353] (HELM PEPTIDE1{V.A.S.T.M.T.D.G.A.N.[C[C@@H](OP(=O)(O)O)[C@H](N[*:1])C(=O)[*:2]].M.I.E.H}$$$$V2.0), the Kd was 0.28 µM in assay [1] (20 nM FITC labeled peptide, recombinant wild-type MOB1A, pH 7.5, read-out: Kd) and “no measurable binding” in assay [2]. As to “AKPSFLEYFEQKEKE [MST1 residues 391 to 405]”, in assay [3], the “binding signal in Far-Western peptide array” value is “sufficient to bind to MOB1B”. Consider TVLNNYSpTVHQKVPS, for which the dissociation constant (Kd) in assay [4] is 2.4 µM.
